Laboratory results: US10131652B2, “Pyrimidinyloxy benzene derivatives as herbicides” (E. I. DU PONT DE NEMOURS AND COMPANY, priority 2014, dated 2018)

Tests used:
Format in all cases: in vivo
[1] = tested on: blackgrass (Alopecurus myosuroides); assay: Test B postemergence plant response
Summary of the method: (§1)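 Seedlings in a loam soil and sand mix received a postemergence application of the formulated chemicals at the one- to two-leaf stage (2–10 cm tall). They were kept in a greenhouse for roughly 10 days, then scored for injury relative to untreated plants, 0 meaning no effect and 100 complete control.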

[2] = tested on: galium (catchweed bedstraw, Galium aparine); assay: Test B postemergence plant response
Summary of the method: as §1

kochia (Kochia scoparia) [3] = assay: Test D postemergence plant response; conditions: for Kochia plant response rating: scale 0 to 100 (0 no effect, 100 complete control); for Plant response rating, Kochia: scale 0 to 100, 0 no effect, 100 complete control
Summary of the method: (§2)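 Scores reflect visual plant response relative to untreated controls on a 0 to 100 scale, where 100 means complete control. Treatment was postemergence on 2–18 cm plants in peat-based potting medium, with greenhouse assessment 13–15 days later.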

[4] = tested on: chickweed (common chickweed, Stellaria media); assay: Test D postemergence plant response; conditions: for Chickweed plant response rating: scale 0 to 100 (0 no effect, 100 complete control); for Plant response rating, Chickweed: scale 0 to 100, 0 no effect, 100 complete control
Summary of the method: as §2

wild oat (Avena fatua) = assay: Test D postemergence plant response; conditions: for Oat, Wild plant response rating: scale 0 to 100 (0 no effect, 100 complete control); for Plant response rating, Oat, Wild: scale 0 to 100, 0 no effect, 100 complete control
Summary of the method: as §2

[5] = tested on: barnyardgrass (Echinochloa crus-galli); assay: Test C flooded paddy test plant response; conditions: Flood, 250 g ai/ha; scale of 0 to 100 where 0 is no effect and 100 is complete control; 13 to 15 days
Summary of the method: (§3)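 2-leaf plants; flood 3 cm, cpd into paddy water; greenhouse 13–15 d; visual score vs untreated, 0 = no effect, 100 = complete control; dash = no result.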

[6] = tested on: ducksalad (Heteranthera limosa); assay: Test C flooded paddy test plant response; conditions: Flood, 250 g ai/ha; scale of 0 to 100 where 0 is no effect and 100 is complete control; 13 to 15 days
Summary of the method: as §3

[7] = tested on: small-flower umbrella sedge (Cyperus difformis); assay: Test C flooded paddy test plant response; conditions: Flood, 250 g ai/ha; scale of 0 to 100 where 0 is no effect and 100 is complete control; 13 to 15 days
Summary of the method: as §3

rice (Oryza sativa) = assay: Test C flooded paddy test plant response; conditions: Flood, 250 g ai/ha; scale of 0 to 100 where 0 is no effect and 100 is complete control; 13 to 15 days
Summary of the method: as §3

[8] = tested on: barnyardgrass (Echinochloa crus-galli); assay: Test B pre-/postemergence plant response
Summary of the method: (§4)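 Ratings reflect visual injury versus untreated controls, from 0 for no effect to 100 for complete control, assessed roughly 10 days after treatment. Formulation: non-phytotoxic solvent mix with surfactant; pre- and postemergence sprays on plants grown in loam soil and sand.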

[9] = tested on: Italian ryegrass (Lolium multiflorum); assay: Test B pre-/postemergence plant response
Summary of the method: as §4

[10] = tested on: ragweed (common ragweed, Ambrosia elatior); assay: Test B pre-/postemergence plant response
Summary of the method: as §4

corn (Zea mays) = assay: Test B pre-/postemergence plant response
Summary of the method: as §4

[11] = tested on: pigweed (Amaranthus retroflexus); assay: Test B pre-/postemergence plant response
Summary of the method: as §4

kochia (Kochia scoparia) [12] = assay: Test B pre-/postemergence plant response
Summary of the method: as §4

[13] = tested on: giant foxtail (Setaria faberii); assay: Test B pre-/postemergence plant response
Summary of the method: as §4

[14] = tested on: wheat (Triticum aestivum); assay: Test B pre-/postemergence plant response
Summary of the method: as §4

[15] = 31 g ai/ha, Postemergence, 0 to 100 scale, 0 no effect, 100 complete control
[16] = 125 g ai/ha, postemergence, 0 to 100 scale, 0 no effect, 100 complete control
[17] = 31 g ai/ha, Preemergence, 0 to 100 scale where 0 is no effect and 100 is complete control
[18] = Preemergence, 125 g ai/ha, 0 to 100 scale (0 no effect, 100 complete control)
[19] = Postemergence, 1000 g ai/ha, 0 to 100 scale (0 no effect, 100 complete control)
[20] = Preemergence, 1000 g ai/ha, 0 to 100 scale (0 no effect, 100 complete control)

Compound: FC(F)Oc1cccc(Oc2ncc(Cl)cn2)c1-c1cc(C(F)F)on1 [Compound 131]
- Plant response rating, Blackgrass [1, 15]: 50
- Plant response rating, Blackgrass [1, 16]: 80
- Plant response rating, Galium [2, 16]: 90
- Kochia plant response rating (kochia (Kochia scoparia) [3]; 31 g ai/ha): 90
- Plant response rating, Kochia (kochia (Kochia scoparia) [3]; 62 g ai/ha): 95
- Plant response rating, Kochia (kochia (Kochia scoparia) [3]; 125 g ai/ha): 100
- Chickweed plant response rating ([4]; 16 g ai/ha): 65
- Chickweed plant response rating ([4]; 31 g ai/ha): 80
- Plant response rating, Chickweed ([4]; 62 g ai/ha): 98
- Plant response rating, Chickweed ([4]; 125 g ai/ha): 100
- Oat, Wild plant response rating (wild oat (Avena fatua); 31 g ai/ha): 15
- Plant response rating, Oat, Wild (wild oat (Avena fatua); 62 g ai/ha): 20
- Plant response rating, Oat, Wild (wild oat (Avena fatua); 125 g ai/ha): 35
- Barnyardgrass plant response rating [5]: 75
- Ducksalad plant response rating [6]: 95
- Sedge, Umbrella plant response rating [7]: 95
- Rice plant response rating (rice (Oryza sativa)): 60
- Plant response rating, Barnyardgrass [8, 15]: 50
- Plant response rating, Barnyardgrass [8, 17]: 80
- Plant response rating, Barnyardgrass [8, 16]: 90
- Barnyardgrass plant response rating [8, 18]: 100
- Plant response rating, Ryegrass, Italian [9, 17]: 20
- Plant response rating, Ryegrass, Italian [9, 16]: 70
- Ryegrass, Italian plant response rating [9, 18]: 90
- Plant response rating, Ragweed [10, 17]: 20
- Plant response rating, Ragweed [10, 16]: 70
- Ragweed plant response rating [10, 18]: 60
- Plant response rating, Corn (corn (Zea mays); [15]): 20
- Plant response rating, Corn (corn (Zea mays); [16]): 40
- Plant response rating, Pigweed [11, 17]: 100
- Plant response rating, Pigweed [11, 16]: 100
- Pigweed plant response rating [11, 18]: 100
- Plant response rating, Kochia (kochia (Kochia scoparia) [12]; [17]): 0
- Plant response rating, Kochia (kochia (Kochia scoparia) [12]; [16]): 70
- Kochia plant response rating (kochia (Kochia scoparia) [12]; [18]): 10
- Plant response rating, Foxtail, Giant [13, 15]: 50
- Plant response rating, Foxtail, Giant [13, 17]: 100
- Plant response rating, Foxtail, Giant [13, 16]: 90
- Foxtail, Giant plant response rating [13, 18]: 100
- Plant response rating, Wheat [14, 16]: 30

Compound: FCc1cc(-c2c(F)cccc2Oc2ncc(Cl)cn2)no1 [Compound 57]
- Plant response rating, Blackgrass [1, 19]: 90
- Plant response rating, Galium [2, 19]: 90
- Kochia plant response rating (kochia (Kochia scoparia) [3]; 16 g ai/ha): 75
- Kochia plant response rating (kochia (Kochia scoparia) [3]; 31 g ai/ha): 90
- Plant response rating, Kochia (kochia (Kochia scoparia) [3]; 62 g ai/ha): 95
- Plant response rating, Kochia (kochia (Kochia scoparia) [3]; 125 g ai/ha): 100
- Chickweed plant response rating ([4]; 16 g ai/ha): 30
- Chickweed plant response rating ([4]; 31 g ai/ha): 50
- Plant response rating, Chickweed ([4]; 62 g ai/ha): 55
- Plant response rating, Chickweed ([4]; 125 g ai/ha): 75
- Oat, Wild plant response rating (wild oat (Avena fatua); 16 g ai/ha): 0
- Oat, Wild plant response rating (wild oat (Avena fatua); 31 g ai/ha): 0
- Plant response rating, Oat, Wild (wild oat (Avena fatua); 62 g ai/ha): 5
- Plant response rating, Oat, Wild (wild oat (Avena fatua); 125 g ai/ha): 15
- Barnyardgrass plant response rating [5]: 0
- Ducksalad plant response rating [6]: 90
- Sedge, Umbrella plant response rating [7]: 75
- Rice plant response rating (rice (Oryza sativa)): 0
- Plant response rating, Barnyardgrass [8, 19]: 100
- Plant response rating, Barnyardgrass [8, 20]: 100
- Plant response rating, Ryegrass, Italian [9, 19]: 80
- Plant response rating, Ryegrass, Italian [9, 20]: 80
- Plant response rating, Ragweed [10, 19]: 100
- Plant response rating, Ragweed [10, 20]: 90
- Plant response rating, Corn (corn (Zea mays); [19]): 90
- Plant response rating, Pigweed [11, 19]: 100
- Plant response rating, Pigweed [11, 20]: 90
- Plant response rating, Kochia (kochia (Kochia scoparia) [12]; [19]): 90
- Plant response rating, Kochia (kochia (Kochia scoparia) [12]; [20]): 100
- Plant response rating, Foxtail, Giant [13, 19]: 100
- Plant response rating, Foxtail, Giant [13, 20]: 100
- Plant response rating, Wheat [14, 19]: 90
